Experimental data from patent publication US7145043B2, “Non-Hazardous oxidative neutralization of aldehydes” (Ethicon, Inc., priority 2003, dated 2006).

Tested on: Fathead Minnow
Settings: 750 mg/L concentration, 48 hours
Text: CALIFORNIA CODE REGS (“CCR”) Title 22-Fathead Minnow Hazardous Waste Screen Bioassay.

## OO [Hydrogen peroxide (5%), Hydrogen peroxide]
  survival: 0%
